Peptide text beside a SMILES is read from it.
What was measured:
[1] = In vivo toxicity of TP3, intramuscular injection, blood biochemistry; settings: mice, i.m. 2 mg/mouse
Method: To determine the toxicity of TP3, TP3 was dissolved in phosphate-buffered saline (PBS; pH 7.4) and administered as intramuscular bolus injections in the left thigh (2 mg/mouse). […] To study the effect of treatment on biochemistry, mice (n=6 in each group) were treated with PBS (control). Blood samples (0.2 ml) were collected day 1, 3 and 6 after the final injection of TP3, and used to determine the serum levels of glutamic oxaloacetic transaminase (GOT), glutamic pyruvic transaminase (GPT), blood urea nitrogen (BUN), creatinine (CRE), total glucose (GLU), and creatine phosphokinase (CPK).

MRSA [2] = settings: 24 h
MRSA [3] = assay: Mouse model of MRSA sepsis, TP3; type: in vivo, Balb/c mice; settings: for Mean ± SD count, Blood / Mean ± SD count, Liver / Mean ± SD count, Mesenteric lymph nodes / Mean ± SD count, Peritoneum / Mean ± SD count, Spleen: 48 h after injection; for survival rate: 8 days after MRSA infection, i.p. 10 min after MRSA, TP3 0.005 mg/g, vancomycin and methicillin 0.01 mg/g; for % lethality: monitored for 2 day after injection, MRSA 1 × 10^6 CFU i.p.
Method: (§1) Female Balb/c mice (6-8 weeks old) were injected intraperitoneally with 10^6 CFU MRSA per mouse. Ten minutes after MRSA injection, mice were injected intraperitoneally with vancomycin (0.01 mg/g mouse body weight), methicilin (0.01 mg/g mouse body weight), or TP3 (0.005 mg/g mouse body weight). In a second set of experiments, mice were given intraperitoneal injections of TP3 (0.005 mg/g mouse body weight) at 10, 60, 120, or 180 min after MRSA injection. The survival rate and status were recorded every 24 h for up to 192 h. To examine bacterial dissemination, mice were sacrificed at 48 h after injection with antibiotics or TP3, and the bacterial numbers in blood, peritoneum, spleen, liver, and mesenteric lymph nodes were recorded. Colony counts from the diluted bacterial solutions were expressed relative to those at the start of treatment. These experiments consisted of four groups, and each group contained 5 mice.

MRSA [4] = assay: Mouse wound healing model, wound closure and microbial load, TP3; type: in vivo, Balb/c mice
Method: Female Balb/c mice (6-8 weeks old) were used for wound healing experiments. All mice were housed individually to prevent fighting and further damage to the wounds, and they were provided with food and water ad libitum. Mice were maintained on a 12 h light: dark cycle at room temperature, and acclimatized to the environment for at least a week before use in experiments. All researchers wore caps, sterile gloves, gowns, and shoe covers when handling mice. Hair was removed from the back of the mice by shaving, and a full thickness wound (1 cm in diameter) was then created in the exposed region. Each wound was inoculated with 50 μl of broth mix containing 10^6 cfu (colony forming units) of S. aureus. At 5 min after inoculation, 50 μl TP3 (2 mg/ml) in a total volume of 0.1 ml were applied. Thirty minutes after treatment, wounds were covered with Tegaderm (3M, St. Paul, Minn.) to maintain uniformity, and to prevent the mice from removing the treatments. Based on initial experiments, we examined the wounds at 0, 3, 5 and 19 days post-injury, so as not to disturb the infection. Such examinations captured the transitions from inflammatory to regenerative, and regenerative to resolving phases of wound healing. Animals were subsequently euthanized by CO2 inhalation and the wounds assessed. Four individuals in each group were examined at each time point for each experiment. Each wound was measured and then removed from the animal, with unwounded skin taken from the contralateral dorsum as a control. Each biopsy was bisected with three sections being used for tensiometry and histology, and two sections for quantitative determination of microbial load. Wound healing studies were repeated in triplicate.
Tracings were taken immediately after injury. For uncontaminated wounds, wound size was determined every second day. For contaminated wounds, mice were euthanized at days 3, 5, 19 and tracings of the wound edges were made. Wound areas were determined using the Macintosh Adobe Photoshop program, Histogram Analysis. The percentage of wound contraction was calculated as follows: % Wound contraction=(A0−At)/A0×100, where A0 is the original wound area, and At is the area of wound at the time of biopsy on every two days, accordingly.
Multidrug-resistant strains of Staphylococcus aureus commonly associated with human wound infections were selected to generate a polymicrobial solution. The MRSA strain is a clinical isolate from stool obtained from Taipei City Hospital (Heping Fuyou branch). The initial inoculum was prepared by culturing aerobic bacteria in Tryptic Soy Broth (TSB) overnight at 37° C. Broths were subsequently centrifuged at 1000 rpm for 15 min, and resuspended in TSB with 15% glycerol, or chopped meat extract with 15% glycerol (for aerobic bacteria). The concentration was adjusted to 10^6 cfu/50 μl, and stored at −80° C. Prior to wound application, […]

MRSA [5] = assay: Mouse model of MRSA sepsis, TP4; type: in vivo, Balb/c mice; settings: for Mean ± SD count, Blood / Mean ± SD count, Liver / Mean ± SD count, Mesenteric lymph nodes / Mean ± SD count, Peritoneum / Mean ± SD count, Spleen: 48 hours after the last treatment; for survival rate: 8 days after MRSA infection, i.p. 10 min after MRSA, TP4 0.005 mg/g, vancomycin and methicillin 0.01 mg/g; for % lethality: monitored for 2 day after injection, MRSA 10^6 CFU i.p.
Method: as §1, with “weight), methicillin” for “weight), methicilin”, “or TP4” for “or TP3”, “of TP4” for “of TP3”, “injection. Survival” for “injection. The survival”, “or TP4,” for “or TP3,”, “contained 10” for “contained 5”
Infected mice were untreated, or treated with TP4, methicillin, or vancomycin via i.p. injection. Bacterial numbers in blood, peritoneum, spleen, liver, and mesenteric lymph nodes were subsequently recorded. Colony counts from the diluted bacterial solutions are expressed relative to those at the start of treatment. Each value represents the mean value from three determinations±standard deviation (SD).

MRSA [6] = assay: Histology and IHC of wound tissue, TP3; type: in vivo, Balb/c mice; settings: wounds
Method: Skin tissues were removed and fixed as previously described. In brief, the cryosections were fixed with 4% formaldehyde, and the tissue samples were stained with hematoxylin/eosin, Giemsa, or Gram stain. IHC was analyzed by three independent investigators. Images were taken using a BX-51 microscope (Olympus, Japan).

Structure (SMILES)	Mean ± SD count, Blood (MRSA [3])	Mean ± SD count, Liver (MRSA [3])	Mean ± SD count, Mesenteric lymph nodes (MRSA [3])	Mean ± SD count, Peritoneum (MRSA [3])	Mean ± SD count, Spleen (MRSA [3])	survival rate (MRSA [3]) [%]	% lethality (MRSA [3])	Bacterial Count (MRSA [4]; day 0)	Bacterial Count (MRSA [4]; day 5)	Mean ± SD count, Blood (MRSA [5])	Mean ± SD count, Liver (MRSA [5])	Mean ± SD count, Mesenteric lymph nodes (MRSA [5])	Mean ± SD count, Peritoneum (MRSA [5])	Mean ± SD count, Spleen (MRSA [5])	survival rate (MRSA [5]) [%]	% lethality (MRSA [5])	also measured
CC[C@H](C)[C@H](NC(=O)[C@H](CC(C)C)NC(=O)[C@H](CO)NC(=O)[C@H](Cc1c[nH]cn1)NC(=O)[C@@H](NC(=O)[C@H](Cc1c[nH]cn1)NC(=O)[C@H](CCCCN)NC(=O)CNC(=O)[C@@H](NC(=O)[C@H](CO)NC(=O)[C@H](Cc1ccccc1)NC(=O)[C@H](CC(C)C)NC(=O)CNC(=O)CNC(=O)[C@@H](NC(=O)[C@@H](NC(=O)[C@H](Cc1c[nH]cn1)NC(=O)[C@H](Cc1c[nH]cn1)NC(=O)[C@@H](NC(=O)[C@@H](N)Cc1ccccc1)[C@@H](C)CC)[C@@H](C)CC)[C@@H](C)CC)C(C)C)[C@@H](C)CC)C(=O)N[C@@H](Cc1c[nH]cn1)C(=O)NCC(=O)N[C@@H](Cc1c[nH]cn1)C(=O)O [TP3, Tilapia piscidin 3] (H-FIHHIIGGLFSVGKHIHSLIHGH-OH)	–	–	–	–	–	–	–	–	–	–	–	–	–	–	–	–	BUN ([1]; day 1): 15.2 ± 2.4^A mg/dl; CPK ([1]; day 1): 114 ± 21.9^A U/l; GLU ([1]; day 1): 258.6 ± 28.2^AB mg/dl; GOT ([1]; day 1): 122.6 ± 25.7^C U/l; GPT ([1]; day 1): 71.3 ± 8.6^C U/l; BUN ([1]; day 3): 17.4 ± 2.3^A mg/dl; CPK ([1]; day 3): 88.3 ± 5.8^B U/l; GLU ([1]; day 3): 219.8 ± 8.2^A mg/dl; GOT ([1]; day 3): 47.3 ± 5.9^A U/l; GPT ([1]; day 3): 36.2 ± 2.7^AB U/l; BUN ([1]; day 6): 20.2 ± 1.8^AB mg/dl; CPK ([1]; day 6): 129 ± 15.3^AB U/l; GLU ([1]; day 6): 290.8 ± 53.5^B mg/dl; GOT ([1]; day 6): 46 ± 8.08^A U/l; GPT ([1]; day 6): 35 ± 5.9^AB U/l; minimal inhibitory concentration (MIC) (MRSA [2]): > 3.9 µg/mL
COc1cccc(OC)c1C(=O)N[C@@H]1C(=O)N2[C@@H]1SC(C)(C)[C@@H]2C(=O)O [methicillin]	5.8 × 10^7 ± 1.7 × 10^7B CFU/ml	3.7 × 10^8 ± 8.1 × 10^7B CFU/ml	6.4 × 10^7 ± 5.3 × 10^7B CFU/ml	4.9 × 10^9 ± 2.2 × 10^9B CFU/ml	9.5 × 10^8 ± 1.9 × 10^8B CFU/ml	0	20^B %	5.2 × 10^4 CFU/10 μl	Fatal	4.1 × 10^7 ± 1.3 × 10^7B CFU/mL	2.7 × 10^8 ± 3.3 × 10^8B CFU/mL	4.1 × 10^7 ± 3 × 10^7C CFU/mL	2.3 × 10^9 ± 2 × 10^9B CFU/mL	1.5 × 10^8 ± 2.1 × 10^7B CFU/mL	0	20^B %	–
CN[C@H](CC(C)C)C(=O)N[C@H]1C(=O)N[C@@H](CC(N)=O)C(=O)N[C@H]2C(=O)N[C@H]3C(=O)N[C@H](C(=O)N[C@H](C(=O)O)c4cc(O)cc(O)c4-c4cc3ccc4O)[C@H](O)c3ccc(c(Cl)c3)Oc3cc2cc(c3O[C@@H]2O[C@H](CO)[C@@H](O)[C@H](O)[C@H]2O[C@H]2C[C@](C)(N)[C@H](O)[C@H](C)O2)Oc2ccc(cc2Cl)[C@H]1O [vancomycin]	8 × 10^3 ± 1.3 × 10^5B CFU/ml	1.7 × 10^8 ± 3.8 × 10^7B CFU/ml	2 × 10^8 ± 4.4 × 10^6A CFU/ml	2.7 × 10^9 ± 1.5 × 10^9A CFU/ml	1.8 × 10^3 ± 8.4 × 10^7B CFU/ml	80	0^A %	4.9 × 10^4 CFU/10 μl	2.6 × 10^3 CFU/10 μl	8 × 10^4 ± 1.1 × 10^4B CFU/mL	1.3 × 10^7 ± 1.8 × 10^3B CFU/mL	1 × 10^7 ± 4 × 10^4B CFU/mL	1.5 × 10^6 ± 1 × 10^3A CFU/mL	1.4 × 10^7 ± 1.1 × 10^4B CFU/mL	80	10^AB %	Bacterial Count (MRSA [4]; day 3): 3 × 10^5 CFU/10 μl; Bacterial Count (MRSA [4]; day 19): 42 CFU/10 μl; overall epidermal maturation compared to the TP3 group (MRSA [6]): displayed impairment in overall epidermal maturation
